{
  "source": "patent US11725000B2",
  "about": "“Apoptosis inhibitors” (National Institute of Biological Sciences, Beijing, priority 2017, dated 2023)",
  "format_in_all_cases": "cell-based",
  "key": {"U2OS_Bim cells [1]": {"system": "U2OS_Bim cells", "assay": "Apoptosis inhibition assay (Bim-induced apoptosis, cell viability by ATP level)", "settings": "U2OS_Bim cells", "procedure,_shortened": "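Apoptosis was triggered by doxycycline (0.1 μg/mL) induction of Bim, one hour after compound addition to U2OS_Bim cells. Survival was measured after 24 h from cellular ATP (CellTiter-Glo), relative to DMSO, with zVAD at 20 μM as rescue control. Data are duplicate means, some estimated from preliminary results.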"}, "U2OS_Bim cells [2]": {"system": "U2OS_Bim cells", "assay": "Irreversibility binding assay (cellular wash/no wash assay)", "description": "It has been reported that sulfone can serve as a good leaving group in SN2 substitution reactions when linked to electron withdrawing groups. Active compounds in our SAR study all contained a —CF3 substituted pyrimidine ring linked to the sulfone group. Replacement of CF3 at the R2 position with groups with less powerful electron-withdrawing properties totally abolished the apoptosis inhibition activity. […] To test the reactivity of representative TC09 compounds, we performed model reactions using different nucleophilic reagent (cysteine, lysine, and glutathione) with compounds 1, 6, and 27. […] To further explore the binding mode of the active compounds in a cellular context, we next performed a cellular wash/no wash assay for determining the reversibility of compound-target interactions. Following compound incubation, one subset of cells was washed several times to eliminate the free test compounds, and the other subset was not washed. Apoptosis was induced and the viability of cells was then measured and EC50 under wash conditions was compared with no wash conditions.[9]\nU2OS_Bim cells were plated at a density of 3000 cells per well in 96-well plates. 24 hrs later, duplicate sets of cells were treated with experimental compounds for 3 hrs. One subset of these cells were treated with 0.1 μg/mL DOX to trigger apoptosis. The remaining subset of cells was washed free of the experimental compound using warmed medium, 3 times, before being treated with 0.1 μg/mL DOX. 24 hours after DOX addition, cell viability was determined by measuring the ATP levels using a CellTiter-Glo kit. Cell survival rate was calculated. zVAD (20 μM) was used as a positive control."}, "U2OS_Bim cells [3]": {"system": "U2OS_Bim cells", "assay": "Immunostaining of cytochrome c (mitochondrial cytochrome c release)", "settings": "immunofluorescence after induced Bim overexpression", "procedure": "U2OS_Bim cells were plated in Lab-Tek eight-chambered slides (Thermo Scientific). 24 hrs later, cells were treated with experimental compounds for one hour. Cell were washed by PBS for 10 min and fixed with 2% PFA for 30 min at room temperature. Following three additional washes in PBS, cells were incubated in PBS containing 0.1% Triton X-100 for 10 min. Cytochrome c antibody (diluted in 5% BSA in PBST) was incubated with the cells at 4° C. overnight. Cells were then washed three times with PBST and incubated with secondary antibody at room temperature for 1 h. Following three additional washes in PBS, the slides were covered and sealed and then examined with a Zeiss LSM 510 confocal microscope."}, "U2OS_Bim cells [4]": {"system": "U2OS_Bim cells", "assay": "TMRM staining (mitochondrial membrane potential)", "settings": "DOX induction of Bim", "procedure": "U2OS_Bim cells were plated at a density of 3000 cells per well in 96-well optical plates. 24 hrs later, cells were treated with experimental compounds for one hour. The cells were then treated with 0.1 μg/mL DOX to trigger apoptosis. 4 hrs later, 50 nM TMRM was added to each well and incubated for 30 min. Cells were washed 3 times with warmed PBS buffer and examined with a Zeiss LSM 510 confocal microscope."}, "U2OS_Bim cells [5]": {"system": "U2OS_Bim cells", "assay": "Long-term cell survival under constant apoptotic insult (DOX)", "procedure": "We therefore tested the long-term impact of TC09 compounds on cells experiencing constant apoptotic insult. […] Remarkably, in the presence of tested TC09 compounds, the cells continued to proliferate, similar to cells grown under normal conditions.\nThe U2OS_Bim cells were all killed when DOX was added, even in the presence of z-VAD-FMK."}, "[6]": {"settings": "no wash, 3 hrs compound incubation before DOX, read-out: EC50 (no wash)"}, "[7]": {"settings": "estimated (*Est.) / preliminary results, numbering of Tables 4a/4b, read-out: EC50"}},
  "note": "Where a SMILES comes first, the peptide text is derived from it. The star is where a group is joined. Cbz = O=C(OCc1ccccc1)*; CH2F = FC*",
  "data": [
    {"smiles": "Cc1ccc(O)c(NC(=O)CCCS(=O)(=O)c2nc(-c3cccs3)cc(C(F)(F)F)n2)c1", "note": "[Hit]", "values": [
      {"measurement": "EC50", "setting": "U2OS_Bim cells [1]; DOX-induced Bim overexpression, viability 24 h after DOX, read-out: EC50", "result": 4.01, "unit": "µM"},
      {"measurement": "EC50", "setting": "U2OS_Bim cells [1]; means of duplicates, numbering of Tables 4a/4b, read-out: EC50", "result": "1 to 10", "unit": "µM"},
      {"measurement": "EC50", "setting": "U2OS_Bim cells [1]; read-out: EC50 in increasing cell survival rates following apoptosis induced by Bim overexpression", "result": 4, "unit": "µM"},
      {"measurement": "EC50", "setting": "U2OS_Bim cells [2]; cells washed free of compound 3 times before DOX, read-out: EC50 (wash assay)", "result": 3.9, "unit": "µM"},
      {"measurement": "EC50", "setting": "U2OS_Bim cells [2]; [6]", "result": 4.01, "unit": "µM"},
      {"measurement": "mitochondrial cytochrome c release", "setting": "U2OS_Bim cells [3]", "result": "could prevent cytochrome c release"}
    ]},
    {"smiles": "COC(=O)C[C@H](NC(=O)[C@H](C)NC(=O)[C@@H](NC(=O)OCc1ccccc1)C(C)C)C(=O)CF", "note": "[zVAD] (Cbz-Val-Ala-Asp(OMe)-CH2F)", "values": [
      {"measurement": "EC50", "setting": "U2OS_Bim cells [2]; [6]", "result": 69.2, "unit": "µM"},
      {"measurement": "mitochondria membrane potential and TMRM enrichment after apoptosis induction", "setting": "U2OS_Bim cells [4]", "result": "cannot be achieved"},
      {"measurement": "cell colonies after 1 week culture with DOX (crystal violet)", "setting": "U2OS_Bim cells [5]; 1 week", "result": "all killed"},
      {"measurement": "cell survival/proliferation over days after addition of DOX", "setting": "U2OS_Bim cells [5]; constant apoptotic insult, up to third day", "result": "clearly delayed death, most of the cells had died by the third day"}
    ]},
    {"smiles": "CS(=O)(=O)c1nc(-c2ccc(=O)n(Cc3ccc4ocnc4c3)c2)cc(C(F)(F)F)n1", "note": "[Compound 224]", "values": [
      {"measurement": "EC50", "setting": "U2OS_Bim cells [1]; estimated based on preliminary results, numbering of Tables 4a/4b, read-out: EC50", "result": "< 10", "unit": "µM"}
    ]},
    {"smiles": "Cc1cc(-c2cc(F)c(=O)n(Cc3ccnc(CCO)c3)c2)nc(S(=O)(=O)CCC(OCc2ccccc2F)c2ccccc2)n1", "note": "(stereo not shown) [Compound 360]", "values": [
      {"measurement": "EC50", "setting": "U2OS_Bim cells [1]; [7]", "result": "0.001 to 1", "unit": "µM"}
    ]},
    {"smiles": "Cc1cc(-c2cc(F)c(=O)n(Cc3ccc4c(c3)OCO4)c2)nc(S(=O)(=O)CCC(OCC2CCN(C)CC2)c2ccccc2)n1", "note": "(stereo not shown) [Compound 411]", "values": [
      {"measurement": "EC50", "setting": "U2OS_Bim cells [1]; [7]", "result": "0.001 to 1", "unit": "µM"}
    ]}
  ]
}
